Measurements from ChEMBL document CHEMBL1144736, “Novel inhibitors of 17beta-hydroxysteroid dehydrogenase type 1: templates for design” (Bioorg Med Chem, 2008).
pIC50: −log10 of the molar value. Active and inactive are the calls of the source. The rule behind the calls is not given here.

Columns and labels:
Type in all cases: cell-based
[1] = molecular target: T1, 17-beta-hydroxysteroid dehydrogenase type 1 (Homo sapiens) (UniProt P14061); experiment: Inhibition of 17beta-HSD1 expressed in intact human T47D cells at 1 uM after 30 mins
T1 sequence (whole entry): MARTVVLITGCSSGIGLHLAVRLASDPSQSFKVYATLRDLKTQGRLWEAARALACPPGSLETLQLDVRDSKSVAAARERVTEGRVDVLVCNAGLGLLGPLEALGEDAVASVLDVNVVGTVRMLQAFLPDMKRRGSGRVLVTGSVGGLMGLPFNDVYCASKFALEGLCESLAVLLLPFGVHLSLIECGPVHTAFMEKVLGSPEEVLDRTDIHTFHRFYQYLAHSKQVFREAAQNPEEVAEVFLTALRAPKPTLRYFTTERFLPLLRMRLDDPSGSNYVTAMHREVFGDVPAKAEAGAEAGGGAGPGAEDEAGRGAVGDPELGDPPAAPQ

[2] = molecular target: T1, 17-beta-hydroxysteroid dehydrogenase type 1 (Homo sapiens); experiment: Inhibition of 17beta-HSD1 expressed in intact human T47D cells at 10 uM after 30 mins
[3] = molecular target: T2, 17-beta-hydroxysteroid dehydrogenase type 1 (Homo sapiens, UniProt P14061); experiment: Inhibition of 17beta-HSD1 expressed in intact human T47D cells after 30 mins
T2 sequence (P14061 whole entry): T1 sequence (whole entry)

[4] = molecular target: T3, 17-beta-hydroxysteroid dehydrogenase type 2 (Homo sapiens) (UniProt P37059); experiment: Inhibition of 17beta-HSD2 expressed in intact human MDA-MB-231 cells at 10 uM after 3 hrs
T3 sequence (whole entry): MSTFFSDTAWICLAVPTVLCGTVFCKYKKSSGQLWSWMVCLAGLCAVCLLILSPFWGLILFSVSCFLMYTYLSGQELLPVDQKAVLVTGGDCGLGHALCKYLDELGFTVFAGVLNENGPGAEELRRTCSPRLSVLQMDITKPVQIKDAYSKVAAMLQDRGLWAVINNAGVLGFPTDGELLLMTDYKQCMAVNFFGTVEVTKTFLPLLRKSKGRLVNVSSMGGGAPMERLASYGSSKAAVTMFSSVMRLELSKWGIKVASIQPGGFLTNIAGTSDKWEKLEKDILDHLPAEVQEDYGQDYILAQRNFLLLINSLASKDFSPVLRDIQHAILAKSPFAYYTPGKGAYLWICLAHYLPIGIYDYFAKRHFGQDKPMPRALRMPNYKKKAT

Row | Structure (SMILES) | Activity [2] | inhibition [2] [%] | pIC50 [3] | further results
1 | CCc1cc(-c2ccc(C(=O)CCC(=O)NCc3ccccn3)cc2)ccc1O |  |  |  | Activity [1]: inactive
2 | CCc1cc(-c2ccc3c(c2)CC(CC(=O)NCc2cnc(C)cn2)C3=O)ccc1O (stereo not drawn) |  |  |  | Activity [1]: inactive
3 | CC(=O)c1ccc(-c2ccc3c(c2)OCO3)cc1 | inactive |  |  | 
4 | COc1ccc(-c2ccc3c(c2)CCC3=O)cc1F |  | 56 |  | 
5 | O=C1CCc2cc(-c3ccccc3)ccc21 | inactive |  |  | 
6 | CCc1cc(-c2ccc(C(=O)CC(C)(C)C(=O)NCc3cccnc3)cc2)ccc1OC |  |  |  | inhibition [1]: 17%
7 | CC(=O)c1ccc(-c2ccc(O)cc2)cc1 |  | 97 | 5.43 | 
8 | O=C1CCCc2cc(-c3ccc(O)cc3)ccc21 |  | 89 | 4.81 | 
9 | CCc1cc(-c2ccc(C(=O)CCC(=O)NCc3cccnc3)cc2)ccc1O |  |  | 5.43 | inhibition [1]: 24%; inhibition [4]: 12%
10 | CC(=O)c1ccc2c(c1)Cc1cc(O)ccc1-2 |  | 86 | 5.32 | 
11 | CCc1cc(-c2ccc(C(=O)CCC(=O)NCc3cccnc3)c(C)c2)ccc1O |  |  |  | inhibition [1]: 21%
12 | CCc1cc(-c2ccc3c(c2)CC(CC(=O)NCc2ccccn2)C3=O)ccc1O (stereo not drawn) |  |  |  | Activity [1]: inactive
13 | CCc1cc(-c2ccc(C(=O)CCC(=O)NCCc3cccnc3)c(C)c2)ccc1O |  |  |  | inhibition [1]: 15%
14 | CCc1cc(-c2ccc(C(=O)CCC(=O)NCCO)cc2)ccc1O |  |  |  | inhibition [1]: 23%
15 | CCc1cc(-c2ccc(O)cc2)ccc1C(C)=O |  | 71 | 5.00 | 
16 | CCc1cc(-c2ccc3c(c2)CC(CC(=O)NCc2cccnc2)C3=O)ccc1O (stereo not drawn) |  |  | 5.33 | inhibition [1]: 39%
17 | CCc1cc(-c2ccc(C(=O)CCC(=O)NCCc3cccnc3)cc2)ccc1O |  |  |  | inhibition [1]: 17%
18 | CCc1cc(-c2ccc(C(=O)CC(C)(C)C(=O)NCCc3cccnc3)cc2)ccc1O |  |  |  | inhibition [1]: 15%

Row | Structure (SMILES) | Activity [2] | inhibition [2] [%] | pIC50 [3] | further results
19 | COc1ccc(-c2ccc(C(C)=O)cc2)c(C)c1 | inactive |  |  | 
20 | CCc1cc(-c2ccc3c(c2)CCC3=O)ccc1O |  | 86 | 5.70 | inhibition [4]: 48%
21 | COc1ccc2c(c1)Cc1cc(C(C)=O)ccc1-2 | inactive |  |  | 
22 | CCc1cc(-c2ccc(C(=O)CC(C)(C)C(=O)NCc3cccnc3)cc2)ccc1O |  |  | 5.74 | inhibition [1]: 38%
23 | COc1ccc(-c2ccc3c(c2)CCC3=O)cc1 | inactive |  |  | 
24 | CC(=O)c1ccc(-c2ccc(O)cc2C)cc1 |  |  | 5.43 | 
25 | CCc1cc(-c2ccc(C(C)=O)cc2)ccc1OC | inactive |  |  | 
26 | CCc1cc(-c2ccc(C(C)=O)cc2)ccc1O |  | 73 | 5.27 | inhibition [4]: 51%
27 | COc1ccc(-c2ccc3c(c2)CCCC3=O)cc1 | inactive |  |  | 
28 | O=C1CCc2cc(-c3ccc(O)c(F)c3)ccc21 |  | 75 | 5.54 | inhibition [4]: 24%
29 | CC(=O)c1ccc(-c2ccc(O)cc2)c(C)c1 | inactive |  |  | 
30 | CCc1cc(-c2ccc3c(c2)CCCC3=O)ccc1OC |  | 71 | 5.08 | 
31 | CCc1cc2c(cc1O)CC[C@@H]1[C@@H]2CC[C@]2(C)C(=O)[C@@H](CC(=O)NCc3cccnc3)C[C@@H]12 |  |  | 7.57 | 
32 | CCc1cc(-c2ccc3c(c2)CCCC3=O)ccc1O |  | 51 |  | 
33 | COc1ccc(-c2ccc(C(C)=O)cc2)cc1 | inactive |  |  | 
34 | COc1ccc(-c2ccc(C(C)=O)cc2C)cc1 | inactive |  |  | 
35 | O=C1CCc2cc(-c3ccc(O)cc3)ccc21 |  | 81 | 5.77 | inhibition [4]: 17%
36 | CCc1cc(-c2ccc3c(c2)CCC3=O)ccc1OC | inactive |  |  | 
